The assay addresses T1, MST1 (Homo sapiens, UniProt Q13043).
T1 sequence (Q13043 1-487): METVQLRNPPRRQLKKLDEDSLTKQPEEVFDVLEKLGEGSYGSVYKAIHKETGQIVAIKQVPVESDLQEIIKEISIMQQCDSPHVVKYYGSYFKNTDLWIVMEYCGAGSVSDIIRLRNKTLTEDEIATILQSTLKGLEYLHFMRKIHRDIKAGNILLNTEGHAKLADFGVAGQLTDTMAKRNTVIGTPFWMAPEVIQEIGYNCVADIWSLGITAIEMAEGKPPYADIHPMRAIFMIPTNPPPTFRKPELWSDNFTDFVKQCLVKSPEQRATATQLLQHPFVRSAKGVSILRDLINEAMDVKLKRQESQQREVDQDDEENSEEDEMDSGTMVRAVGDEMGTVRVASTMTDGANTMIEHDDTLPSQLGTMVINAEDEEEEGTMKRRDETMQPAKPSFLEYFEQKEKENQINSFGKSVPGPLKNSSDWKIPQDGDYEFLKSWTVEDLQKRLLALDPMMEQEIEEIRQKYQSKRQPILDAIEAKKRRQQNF
Put plainly: In vitro measurement of MST1 inhibition (Z′-Lyte kinase assay). It counts as biochemical. The protocol:
Assays were performed in low-volume 384-well black proxiplates (Perkin Elmer, PE-Blk-Proxi-6008269). Eight compounds were first diluted into LDV (Echo) plates using a Multiprobe, at a starting concentration of 1 mM compound in 100% DMSO. Using the ECHO, 75 nl compound was pinged into 384-well proxiplates. The starting concentration of compound in each assay plate is 7.5 uM, followed by 3-fold dilutions, to give quadruplicate ten-point concentration curves. A 3× solution of MST1 enzyme in kinase buffer (Invitrogen, PR4940C) was added to wells containing compound or DMSO controls, followed by a 10 minute preincubation step. Reactions were initiated by adding 5 μL of a mixture of ATP and Z′-Lyte S/T Pep 7 (Invitrogen, PV3180) and proceeded at RT for 1 hour. […] At the end of the kinase reaction, 10 ul of developing solution (Invitrogen, catalog #PR4876B; development buffer A diluted […] in development buffer B) was added to each well and incubated at RT for 1 hr. All wells were read on a Tecan at 400 nm excitation and 460 nm/530 nm emission. Plus and minus enzyme controls were used to calculate percent inhibition and IC50 curves were generated using Excel.

Where [1] appears, read: 1 μM ATP, read-out: IC50 (μM) 1 μM ATP.
Setting [2] is: 50 μM ATP, read-out: IC50 (μM) 50 μM ATP.

Like-named read-outs stand apart in the source and are kept apart here.

`NC(=O)c1ccc(-c2cc(-c3ccc(S(=O)(=O)NC4CC4)cc3)cnc2N)cc1` [4-(2-amino-5-(4-(N-cyclopropylsulfamoyl)phenyl)pyridin-3-yl)benzamide]: the IC50 (as a rule, the concentration that gives 50% inhibition) reads like this: under setting [1], less than 0.05 µM; under setting [2], less than 0.05 µM.

Take `CNS(=O)(=O)c1ccc(-c2cnc(N)c(-c3ccc(C(N)=O)cc3)c2)cc1` [4-(2-amino-5-(4-(N-methylsulfamoyl)phenyl)pyridin-3-yl)benzamide]: the IC50 under setting [2] is less than 0.15 µM. For the compound `Nc1ncc(-c2ccc(C(=O)NCc3ccccc3)cc2)cc1-c1ccc(C(=O)NO)cc1` [4-(2-amino-5-(4-(benzylcarbamoyl)phenyl)pyridin-3-yl)-N-hydroxybenzamide], the 50% inhibitory concentration (IC50) under setting [2] was less than 0.15 µM.

With `NC(=O)c1ccc(-c2cc(-c3ccc(C(=O)c4ccccc4)cc3)cnc2N)cc1` [4-(2-amino-5-(4-benzoylphenyl)pyridin-3-yl)benzamide], the IC50 under setting [2] is less than 0.15 µM. On the same count and under the same terms, the figure for `CCOc1cc(-c2cc(-c3ccc(F)cc3)cnc2N)ccc1C(N)=O` [4-(2-amino-5-(4-fluorophenyl)pyridin-3-yl)-2-ethoxybenzamide] is less than 0.15 µM; for `CCCOc1ccc(-c2cnc(N)c(-c3ccc(C(N)=O)cc3)c2)cc1` [4-(2-amino-5-(4-propoxyphenyl)pyridin-3-yl)benzamide] it is less than 0.15 µM; for `NC(=O)c1ccc(-c2cc(-c3ccc(S(N)(=O)=O)cc3)cnc2N)cc1` [4-(2-amino-5-(4-sulfamoylphenyl)pyridin-3-yl)benzamide] it is less than 0.15 µM.

`CC(C)Oc1cc(-c2nc(-c3ccc(S(=O)(=O)N(C)C4CC4)cc3)cnc2N)ccc1C(N)=O` [4-(3-amino-6-(4-(N-cyclopropyl-N-methylsulfamoyl)phenyl)pyrazin-2-yl)-2-isopropoxybenzamide]: the concentration for half-maximal inhibition (IC50) is, setting by setting: under setting [1], less than 0.05 µM; under setting [2], less than 0.01 µM. Taken in the same sequence, the figures for `N#CC1(c2ccc(-c3cnc(N)c(-c4ccc5c(c4)CCNC5=O)n3)cc2)CCOCC1` [4-(4-(5-amino-6-(1-oxo-1,2,3,4-tetrahydroisoquinolin-6-yl)pyrazin-2-yl)phenyl)tetrahydro-2H-pyran-4-carbonitrile] were less than 0.05 µM and less than 0.01 µM. For `N#CC1(c2ccc(-c3cnc(N)c(-c4ccc5c(c4)CCCNC5=O)n3)cc2)CCOCC1` [4-(4-(5-amino-6-(1-oxo-2,3,4,5-tetrahydro-1H-benzo[c]azepin-7-yl)pyrazin-2-yl)phenyl)tetrahydro-2H-pyran-4-carbonitrile] the same measures were less than 0.05 µM and less than 0.01 µM. With `N#CC1(c2ccc(-c3cnc(N)c(-c4ccc5c(c4)C4(CC4)NC5=O)n3)cc2)CCOCC1` [4-(4-(5-amino-6-(3′-oxospiro[cyclopropane-1,1′-isoindolin]-6′-yl)pyrazin-2-yl)phenyl)tetrahydro-2H-pyran-4-carbonitrile], the IC50 is less than 0.05 µM under setting [1] and less than 0.01 µM under setting [2]. Taken in the same sequence, the figures for `CC1(C)CNC(=O)c2ccc(-c3nc(-c4ccc(C5(C#N)CCOCC5)cc4)cnc3N)cc21` [4-(4-(5-amino-6-(4,4-dimethyl-1-oxo-1,2,3,4-tetrahydroisoquinolin-6-yl)pyrazin-2-yl)phenyl)tetrahydro-2H-pyran-4-carbonitrile] were less than 0.01 µM and less than 0.01 µM. Taken in the same sequence, the figures for `N#CC1(c2ccc(-c3cnc(N)c(-c4ccc5c(c4)NCCNC5=O)n3)cc2)CCOCC1` [4-(4-(5-amino-6-(5-oxo-2,3,4,5-tetrahydro-1H-benzo[e][1,4]diazepin-8-yl)pyrazin-2-yl)phenyl)tetrahydro-2H-pyran-4-carbonitrile] were less than 0.05 µM and less than 0.01 µM.

In the case of `N#CC1(c2ccc(-c3cnc(N)c(-c4ccc5c(c4)C4(CC4)CNC5=O)c3)cc2)CCOCC1` [4-(4-(6-amino-5-(1′-oxo-2′,3′-dihydro-1′H-spiro[cyclopropane-1,4′-isoquinolin]-6′-yl)pyridin-3-yl)phenyl)tetrahydro-2H-pyran-4-carbonitrile], the IC50 under setting [1] is less than 0.01 µM and the IC50 under setting [2] is less than 0.01 µM. In the case of `N#CC1(c2ccc(-c3cnc(N)c(-c4ccc5c(c4)C4(CC4)NC5=O)c3)cc2)CCOCC1` [4-(4-(6-amino-5-(3′-oxospiro[cyclopropane-1,1′-isoindolin]-6′-yl)pyridin-3-yl)phenyl)tetrahydro-2H-pyran-4-carbonitrile], the IC50 reads like this: under setting [1], less than 0.05 µM; under setting [2], less than 0.01 µM. For `CC1(C)CNC(=O)c2ccc(-c3cc(-c4ccc(C5(C#N)CCOCC5)cc4)cnc3N)cc21` [4-(4-(6-amino-5-(4,4-dimethyl-1-oxo-1,2,3,4-tetrahydroisoquinolin-6-yl)pyridin-3-yl)phenyl)tetrahydro-2H-pyran-4-carbonitrile] the same measures were less than 0.01 µM and less than 0.01 µM. Consider `NC(=O)c1ccc(-c2cc(-c3ccc(-n4ccnc4)cc3)cnc2N)cc1` [4-(5-(4-(1H-imidazol-1-yl)phenyl)-2-aminopyridin-3-yl)benzamide], for which the IC50 under setting [2] was less than 0.15 µM. Same read-out and setting: next, `CC(=O)NS(=O)(=O)c1ccc(-c2cnc(N)c(-c3ccc(C(N)=O)cc3)c2)cc1` [4-(5-(4-(N-acetylsulfamoyl)phenyl)-2-aminopyridin-3-yl)benzamide]: less than 0.15 µM. Regarding `CCN(C)S(=O)(=O)c1ccc(-c2cnc(N)c(-c3ccc4c(O)nccc4c3)n2)cc1` [4-(5-amino-6-(1-hydroxyisoquinolin-6-yl)pyrazin-2-yl)-N-ethyl-N-methylbenzenesulfonamide], the IC50 is less than 0.01 µM under setting [1] and less than 0.01 µM under setting [2].

As to `CCN(C)S(=O)(=O)c1ccc(-c2cnc(N)c(-c3ccc4c(c3)CCNC4=O)n2)cc1Cl` [4-(5-amino-6-(1-oxo-1,2,3,4-tetrahydroisoquinolin-6-yl)pyrazin-2-yl)-2-chloro-N-ethyl-N-methylbenzenesulfonamide], the IC50 by setting is: under setting [1], less than 0.01 µM; under setting [2], less than 0.01 µM. For `CCCN(C)S(=O)(=O)c1ccc(-c2cnc(N)c(-c3ccc4c(c3)CCNC4=O)n2)cc1Cl` [4-(5-amino-6-(1-oxo-1,2,3,4-tetrahydroisoquinolin-6-yl)pyrazin-2-yl)-2-chloro-N-methyl-N-propylbenzenesulfonamide], the IC50 reads like this: under setting [1], less than 0.01 µM; under setting [2], less than 0.01 µM.

`[2H]C([2H])([2H])N(C([2H])([2H])[2H])S(=O)(=O)c1ccc(-c2cnc(N)c(-c3ccc4c(c3)CCNC4=O)n2)cc1` [4-(5-amino-6-(1-oxo-1,2,3,4-tetrahydroisoquinolin-6-yl)pyrazin-2-yl)-N,N-di(trideuteromethyl)benzenesulfonamide]: the IC50 runs as follows: under setting [1], less than 0.01 µM; under setting [2], less than 0.01 µM. Regarding `CN(CC(F)F)S(=O)(=O)c1ccc(-c2cnc(N)c(-c3ccc4c(c3)CCNC4=O)n2)cc1` [4-(5-amino-6-(1-oxo-1,2,3,4-tetrahydroisoquinolin-6-yl)pyrazin-2-yl)-N-(2,2-difluoroethyl)-N-methylbenzenesulfonamide], the IC50 is less than 0.05 µM under setting [1] and less than 0.01 µM under setting [2]. Taken in the same sequence, the figures for `CCN(CC1CC1)S(=O)(=O)c1ccc(-c2cnc(N)c(-c3ccc4c(c3)CCNC4=O)n2)cc1` [4-(5-amino-6-(1-oxo-1,2,3,4-tetrahydroisoquinolin-6-yl)pyrazin-2-yl)-N-(cyclopropylmethyl)-N-ethylbenzenesulfonamide] were less than 0.01 µM and less than 0.01 µM.

The values are drawn from patent US8440652B2, “MST1 kinase inhibitors and methods of their use” (Lexicon Pharmaceuticals, Inc., priority 2011, dated 2013).
